The values below come from ChEMBL document CHEMBL6103565, “Current strategies in design and synthesis of antifungals hybrid and chimeric diazine derivatives” (Bioorg Med Chem, 2025).

Values after ≈ are worked out from the molar mass of the structure shown.

Type in all cases: functional
Experiment [1] relates to Candida albicans. Briefly: Antifungal activity against Candida albicans ATCC 10231.
For experiment [2], the system named is Pichia kudriavzevii. Briefly: Antifungal activity against Candida krusei ATCC 6258.
The test system of experiment [3] is Candida parapsilosis. In words: Antifungal activity against Candida parapsilosis ATCC 22019. The following applies: Lodderomyces parapsilosis.
The subject of experiment [4] is Nakaseomyces glabratus. In words: Antifungal activity against Candida glabrata ATCC 90030.
The test system of experiment [5] is Aspergillus niger. In words: Antifungal activity against Aspergillus niger assessed as inhibition of fungal growth.
The test system of experiment [6] is Candida tropicalis. In words: Antifungal activity against Candida tropicalis assessed as inhibition of fungal growth.
The test system of experiment [7] is Candida albicans. In words: Antifungal activity against Candida albicans assessed as zone of inhibition by disc diffusion method. On the technique in general: A growth-free zone around the sample is the usual read-out of agar diffusion tests.
Experiment [8] has as its system Saccharomyces cerevisiae. In words: Antimicrobial activity against Saccharomyces cerevisiae assessed as zone of inhibition by disc diffusion method.
Experiment [9] has as its system Candida albicans. Briefly: Antimicrobial activity against Candida albicans ATCC 64124 assessed as reduction in microbial growth by CLSI protocol based micro-broth dilution method. A general note: In broth dilution the organism is exposed to a series of concentrations in liquid medium.
Experiment [10] has as its system Botrytis cinerea. In words: Antifungal activity against Botrytis cinerea assessed as reduction in fungal growth at 50 ug/ml relative to control.
Experiment [11] concerns Saccharomyces cerevisiae. Briefly: Antimicrobial activity against Saccharomyces cerevisiae assessed as zone of inhibition.
Experiment [12] has as its system Candida albicans. In words: Antifungal activity against Candida albicans.
Experiment [13] deals with Candida albicans. In words: Antifungal activity against Candida albicans assessed as reduction in fungal growth incubated for 48 hrs by broth micro-dilution method.
Experiment [14] concerns Syncephalastrum racemosum. Briefly: Antifungal activity against Syncephalastrum racemosum assessed as zone of inhibition.
Experiment [15] concerns Candida albicans. Briefly: Antifungal activity against Candida albicans assessed as zone of inhibition by serial dilution and disc diffusion method.
Experiment [16] deals with Candida albicans. Briefly: Antifungal activity against Candida albicans assessed as diameter of zone inhibition.
The test system of experiment [17] is Candida albicans. Briefly: Antifungal activity against Candida albicans assessed as diameter of zone inhibition by disc diffusion method.

The term MIC50 denotes an inhibitory concentration at the 50% level, which refers to growth in some studies and to a panel of isolates in others. By MIC is commonly meant the least concentration at which growth counts as inhibited. The compound `Nc1nc2ccccc2nc1NC1CC(C(=O)O)=CC1=O` (centres undefined) displayed an MIC50 in experiment [1] of 0.78 µg/mL (≈ 2.74 µM). Further, the MIC in experiment [2], in experiment [3] and in experiment [4] was 0.78 µg/mL (≈ 2.74 µM) each time.

As for `Nc1nc(-c2ccccn2)cc(-c2cnc(Cl)cn2)n1`, the MIC in experiment [5] and in experiment [6] was 110 µM (≈ 31.4 µg/mL) in each case.

For the compound `C(=N\c1ncnc2[nH]ccc12)/c1ccccc1`, the “inhibition zone (IZ)” value in [7] worked out at 15 mm; in [8], 13 mm.

Consider `Fc1ccccc1/C=N/c1ncnc2[nH]ccc12`, for which the “inhibition zone (IZ)” value in [7] is reported as 15 mm; in experiment [8], 13 mm.

Take `Cc1nc(-c2ccc(C(C)(C)C)cc2)sc1-c1ccnc(N[C@H]2CCCCC2CN)n1` (some centres undefined): in experiment [9], the MIC turned out to be 4 µg/mL.

Regarding `Fc1ccc(/C=N/c2ncnc3[nH]ccc23)cc1`, the figures for the “inhibition zone (IZ)” value in [7] and in experiment [8] were 15 mm and 13 mm, respectively.

With `Nc1nc(-c2ccc([N+](=O)[O-])cc2)cc(-c2cnc(Cl)cn2)n1`, the MIC in experiment [5] and in [6] was 97.3 µM (≈ 32 µg/mL) each time.

As to `Fc1cccc(/C=N/c2ncnc3[nH]ccc23)c1`, the “inhibition zone (IZ)” value in experiment [7] stood at 15 mm; in experiment [8] it was 21 mm.

In general, inhibition refers to the share of the control response that was lost under treatment. With `O=C(Nc1ccc(F)c(Cl)c1)c1ccc(Oc2cc(C(F)(F)F)ncn2)cc1`, the inhibition at 50 µg/mL in experiment [10] stood at 91.7%.

For `COc1ccc(/C=N/Nc2ncnc3[nH]ccc23)cc1OC`, the “inhibition zone (IZ)” value in [11] was 24 mm.

In turn, `Cl.FC(F)(F)c1nnc2n1CCNC2` gave an MIC in experiment [12] of 250 µg/mL.

`Cc1ccc(S(=O)(=O)Nc2nc(/N=N/c3c(N)nn4c(C)cc(=O)[nH]c34)cs2)cc1`: the MIC in [13] came to 3.12 µg/mL (≈ 7.02 µM).

In the case of `CCc1nnc2c(Nc3ccc(Br)cc3)nc3ccccc3n12`, in [14], the “inhibition zone (IZ)” value came to 20 mm.

As to `CN(C)c1ccc(/C=N/c2c(N)n(Cc3ccccc3)c(=O)[nH]c2=O)cc1`, the “inhibition zone (IZ)” value in experiment [7] is recorded as 10 mm.

Consider `COc1cc(-c2cc(-c3cnc(Cl)cn3)nc(N)n2)ccc1O`, for which the MIC in [5] and in experiment [6] was 107 µM (≈ 35.2 µg/mL) in each case.

Consider `Nc1nc(-c2cnc(Cl)cn2)cc(-c2ccc[nH]2)n1`, for which the MIC in experiment [5] and in experiment [6] was 110 µM (≈ 30.1 µg/mL) in each case.

With `COc1ccc(OC)c(/C=N/Nc2ncnc3[nH]ccc23)c1`, the “inhibition zone (IZ)” value is given as 30 mm in [15] and 24 mm in experiment [11].

With `Nc1nc(-c2cnc(Cl)cn2)cc(-c2ccc(F)cc2F)n1`, the MIC in experiment [5] and in experiment [6] was 50 µM (≈ 16 µg/mL) each time.

As for `Cc1cccc(-c2nc3ccccc3nc2N2CCN(Cc3ccccc3)CC2)c1`, the “inhibition zone (IZ)” value in experiment [16] stood at 14 mm.

`O=[N+]([O-])c1ccc(/C=N/c2ncnc3[nH]ccc23)cc1`: the “inhibition zone (IZ)” value in [7] worked out at 15 mm; in experiment [8] it was 13 mm.

In the case of `Nc1nc(-c2cnc(Cl)cn2)cc(-c2ccc(Cl)cc2Cl)n1`, the MIC in [5] and in experiment [6] was 45.4 µM (≈ 16 µg/mL) throughout.

As for `COC(=O)C1C(C(=O)OC)C(C(=O)c2ccccc2)N2N=C(c3ccc(Cl)cc3)C=CC12` (centres undefined), the “inhibition zone (IZ)” value in [16] came out at 25 mm.

`Nc1nc(-c2cnc(Cl)cn2)cc(-c2cccs2)n1`: the MIC in experiment [5] and in [6] was 110 µM (≈ 32 µg/mL) throughout.

On to `COC(=O)c1c(C(=O)OC)c2c3ccccc3c(C)nn2c1C(=O)c1ccc(C)cc1`, for which the “inhibition zone (IZ)” value in [17] was determined as 18 mm.

As to `Nc1nc(-c2ccc(Cl)cc2)cc(-c2cnc(Cl)cn2)n1`, the MIC in experiment [5] and in experiment [6] was 97.3 µM (≈ 31 µg/mL) in each case.

With `COc1ccccc1/C=N/Nc1ncnc2[nH]ccc12`, the “inhibition zone (IZ)” value in [15] worked out at 30 mm.

For `O=C(CN1CCn2c(nnc2C(F)(F)F)C1)Nc1nc2ccccc2s1`, the MIC in experiment [12] came out at 250 µg/mL (≈ 654 µM).

For `COc1cccc(/C=N/Nc2ncnc3[nH]ccc23)c1`, the “inhibition zone (IZ)” value was 30 mm in experiment [15] and 24 mm in experiment [11].

`O=c1cc[nH]c(=O)n1N=C1CC(c2ccc(Cl)cc2)SC(c2ccc(Cl)cc2)C1` (centres undefined) registered an MIC in [12] of 0.25 µg/mL (≈ 0.56 µM).

As to `Cc1ccc(-c2cc(-c3cnc(Cl)cn3)nc(N)n2)cc1`, the MIC in [5] and in experiment [6] was 97.3 µM (≈ 29 µg/mL) in each case.

For `CCc1nnc2c(Nc3ccc(C4=NN(C(N)=S)C(c5ccccc5)C4)cc3)nc3ccccc3n12` (centres undefined), the “inhibition zone (IZ)” value in experiment [14] is reported as 20 mm.

For `Cc1nc(-c2ccc(C(C)(C)C)cc2)sc1-c1ccnc(N[C@H]2CC[C@H](N)CC2)n1`, the MIC in experiment [9] turned out to be 4 µg/mL.

Take `Nc1nc(-c2ccncc2)cc(-c2cnc(Cl)cn2)n1`: the MIC in experiment [5] and in [6] was 110 µM (≈ 31.4 µg/mL) in each case.

For the compound `Cc1nc(Oc2ccc(C(=O)Nc3ccc(Br)c(Cl)c3)cc2)cc(C(F)(F)F)n1`, the inhibition at 50 µg/mL in experiment [10] was 83.8%.
